Patent US10080365B2, “Use of strobilurin type compounds for combating phytopathogenic fungi resistant to Qo inhibitors” (BASF SE, priority 2011, dated 2018)
Like-named read-outs stand apart in the source and are kept apart here.

Assays:
[1] = system: Septoria tritici isolates containing the G143A in the cytochrome b gene; test: Glass house Trial 3: control of leaf blotch on wheat caused by two Septoria tritici isolates containing G143A; type: in vivo; settings: % diseased leaf area after about 28 days
Experimental: The spray solutions were prepared in several steps:
The stock solution was prepared as follows: 1.26 ml of a 1:1 mixture of cyclohexanone and dimethylsulfoxide was added to 8.4 mg of active ingredient. Next, 40.74 ml of a mixture of water, acetone (10%), the emulsifier Wettol (0.1%) and the wetting agent Silwet (0.05%) was added. This stock solution was then further diluted with the described solvent-emulsifier-water mixture to the desired concentrations.
Trial 3: Control of Leaf Blotch on Wheat Caused by Caused by Two Septoria tritici Isolates Containing the G143A in the Cytochrome b Gene for their Cytochrome Bc1 Complex
Wheat plants were grown in pots. These plants were sprayed to run-off with an aqueous suspension, containing the desired concentration of active ingredient. The next day, the treated plants were inoculated with an aqueous suspension of Septoria tritici. After inoculation, the trial plants were covered with a lid and immediately transferred to a chamber with a relative humidity of about 83 to 85% and 19.5 to 20° C. After 4 days the lid was removed. Altogether, the trial plants were cultivated for about 28 days in that greenhouse chamber. The extent of fungal attack on the leaves was then visually assessed as % diseased leaf area.

[2] = system: Septoria tritici (Qo-inhibitor sensitive, wild-type); test: Microtiter test, Septoria tritici Qo-inhibitor sensitive wild-type (Use Example 1); type: cell-based; settings: turbidity at 620 nm, read-out: Sensitive Septoria tritici isolate (wild type) (S-IC50)
Experimental: (§1) The active substances were formulated separately as a stock solution in dimethyl sulfoxide (DMSO) at a concentration of 10 000 ppm.
(§2) Activity against the Septoria blotch pathogen caused by Septoria tritici in the microtiter test
(§3) Fungal strains used: • a) Septoria tritici (Qo-inhibitor sensitive, wild-type) • b) Septoria tritici (Qo-inhibitor-resistant, G143A mutant)
(§4) 100 ml 2% Malt extract in water at pH6.8 were inoculated with microspores from 2 week old cultures grown on 2% malt extract+2% agar in Petri dishes and incubated for 3 days on a rotary shaker at 24° C. und 150 rpm. The culture was harvested, glycerol was added (15% (v/v) and kept frozen at −20° C. in aliquots of 1 ml.
(§5) 1 ml stock suspension was thawed and suspended into 800 ml of 2% malt extract in water at pH 6.8. Compounds were diluted from stock solution in (dimethylsulfoxide) DMSO in 10 steps. The compound solutions were diluted 1/5 with sterile deionized water before use. 5 μl of the compound solutions were transferred into empty microplates. The plates were then filled with 195 μl of the microspore suspension of each strain.
(§6) The antifungal activity was determined by measuring the turbidity of a culture in 96-well microplates in the presence of test compounds. Fungal growth was measured by recording the optical density at 620 nm every 15 h for 150 h. The relative antifungal activity was calculated by comparison of the effect of the test compounds with the effect of a DMSO control and a standard fungicide.
(§7) IC50-values (concentration of test compound resulting in 50% inhibition of fungal growth) were calculated from the resulting dose-response for each compound and strain. The initial concentration of the test compounds and the 10 steps of dilution (1:4 each) allowed IC50-values from 0.001 to 100 μmol/l (μM) to be assessed.

[3] = system: Septoria tritici (Qo-inhibitor-resistant, G143A mutant); test: Microtiter test, Septoria tritici Qo-inhibitor-resistant G143A mutant (Use Example 1); type: cell-based; settings: for IC50: read-out: Resistant Septoria tritici isolate (G143A mutation) (R-IC50); for Resistance factor RF = R-IC50/S-IC50: ratio of IC50 for G143A resistant isolate to IC50 for wild-type sensitive isolate
Experimental: as §1, §2, §3, §4, §5, §6, §7

[4] = Resistant Septoria tritici isolate 1 (G143A mutation), 12.5 ppm
[5] = Resistant Septoria tritici isolate 1 (G143A mutation), 25 ppm
[6] = Resistant Septoria tritici isolate 1 (G143A mutation), 50 ppm
[7] = Resistant Septoria tritici isolate 1 (G143A mutation), 100 ppm
[8] = Resistant Septoria tritici isolate 1 (G143A mutation), 200 ppm
[9] = Resistant Septoria tritici isolate 2 (G143A mutation), 12.5 ppm
[10] = Resistant Septoria tritici isolate 2 (G143A mutation), 25 ppm
[11] = Resistant Septoria tritici isolate 2 (G143A mutation), 50 ppm
[12] = Resistant Septoria tritici isolate 2 (G143A mutation), 100 ppm
[13] = Resistant Septoria tritici isolate 2 (G143A mutation), 200 ppm
[14] = microtiter test, Qo-inhibitor-resistant G143A mutant, turbidity at 620 nm

CO/C=C(C(=O)OC)\C(C)=C/COc1ccn(-c2ccc(Cl)cc2)n1 [Compound I-7, (Z)-5-[1-(4-Chloro-phenyl)-1H-pyrazol-3-yloxy]-2-[1-methoxy-meth-(E)-yl-idene]-3-methyl-pent-3-enoic acid methyl ester]
Disease level (%) [1, 4]: 100%
Disease level (%) [1, 5]: 80%
Disease level (%) [1, 6]: 20%
Disease level (%) [1, 7]: 3%
Disease level (%) [1, 8]: 3%
Disease level (%) [1, 9]: 90%
Disease level (%) [1, 10]: 15%
Disease level (%) [1, 11]: 5%
Disease level (%) [1, 12]: 1%
Disease level (%) [1, 13]: 0%

CNC(=O)C(=NOC)C(C)=CCOc1ccn(-c2ccc(F)cc2F)n1 [Compound I-11]
Disease level (%) [1, 4]: 100%
Disease level (%) [1, 5]: 90%
Disease level (%) [1, 6]: 30%
Disease level (%) [1, 7]: 3%
Disease level (%) [1, 8]: 1%
Disease level (%) [1, 9]: 70%
Disease level (%) [1, 10]: 50%
Disease level (%) [1, 11]: 30%
Disease level (%) [1, 12]: 5%
Disease level (%) [1, 13]: 1%

CNC(=O)C(=NOC)C(C)=CCOc1ccn(-c2ccc(F)cc2Cl)n1 [Compound I-14]
Disease level (%) [1, 4]: 100%
Disease level (%) [1, 5]: 80%
Disease level (%) [1, 6]: 70%
Disease level (%) [1, 7]: 15%
Disease level (%) [1, 8]: 3%
Disease level (%) [1, 9]: 90%
Disease level (%) [1, 10]: 70%
Disease level (%) [1, 11]: 15%
Disease level (%) [1, 12]: 5%
Disease level (%) [1, 13]: 1%

Cn1nnn(-c2ccccc2COc2ccn(-c3ccc(Cl)cc3)n2)c1=O [Compound I-211]
IC50 [2]: 0.44 µM
IC50 [3, 14]: 1.1 µM
Resistance factor RF = R-IC50/S-IC50 [3]: 2.6
Disease level (%) [1, 4]: 80%
Disease level (%) [1, 5]: 60%
Disease level (%) [1, 6]: 10%
Disease level (%) [1, 7]: 3%
Disease level (%) [1, 8]: 1%
Disease level (%) [1, 9]: 30%
Disease level (%) [1, 10]: 10%
Disease level (%) [1, 11]: 5%
Disease level (%) [1, 12]: 1%
Disease level (%) [1, 13]: 0%

CON=C(C(=O)OC)C(C)=CCOc1ncn(-c2ccc(Cl)c(Cl)c2)n1 [Compound I-291]
IC50 [2]: 1 µM
IC50 [3, 14]: 18 µM
Resistance factor RF = R-IC50/S-IC50 [3]: 18.0

CON=C(C(=O)OC)C(C)=CCOc1ncn(-c2ccc(Br)cc2)n1 [Compound I-292]
IC50 [2]: 7.9 µM
IC50 [3, 14]: 33 µM
Resistance factor RF = R-IC50/S-IC50 [3]: 4.2

CON=C(C(=O)OC)C(C)=CCOc1ncn(-c2cc(C(F)(F)F)ccc2Cl)n1 [Compound I-298]
IC50 [2]: 3.6 µM
IC50 [3, 14]: 31 µM
Resistance factor RF = R-IC50/S-IC50 [3]: 8.6

CON=C(C(=O)OC)C(C)=CCOc1ncn(-c2ccc(Cl)cc2Cl)n1 [Compound I-303]
IC50 [2]: 0.27 µM
IC50 [3, 14]: 4.6 µM
Resistance factor RF = R-IC50/S-IC50 [3]: 17.0

CCc1ccc(-n2cnc(OCC=C(C)C(=NOC)C(=O)OC)n2)cc1 [Compound I-304]
IC50 [2]: 0.53 µM
IC50 [3, 14]: 9.1 µM
Resistance factor RF = R-IC50/S-IC50 [3]: 17.2

CNC(=O)C(=NOC)C(C)=CCOc1ncn(-c2ccc(Cl)cc2Cl)n1 [Compound I-305]
IC50 [2]: 9.3 µM
IC50 [3, 14]: 32 µM
Resistance factor RF = R-IC50/S-IC50 [3]: 3.4

CON=C(C(=O)OC)C(C)=CCOc1ccn(-c2cc(Cl)ccc2C)n1 [Compound I-307]
IC50 [2]: 19 µM
IC50 [3, 14]: 67 µM
Resistance factor RF = R-IC50/S-IC50 [3]: 3.5

CON=C(C(=O)OC)C(C)=CCOc1ncn(-c2ccc(C)c(Cl)c2)n1 [Compound I-310]
IC50 [2]: 0.39 µM
IC50 [3, 14]: 11 µM
Resistance factor RF = R-IC50/S-IC50 [3]: 28.2

CON=C(C(=O)OC)C(C)=CCOc1ncn(-c2ccccc2C)n1 [Compound I-319]
IC50 [2]: 17 µM
Resistance factor RF = R-IC50/S-IC50 [3]: 6.0

CON=C(C(=O)OC)C(C)=CCOc1ncn(-c2cc(C)ccc2C)n1 [Compound I-324]
IC50 [2]: 1.9 µM
IC50 [3, 14]: 38 µM
Resistance factor RF = R-IC50/S-IC50 [3]: 20.0

CON=C(C(=O)OC)C(C)=CCOc1ncn(-c2ccc(C(F)(F)F)cc2Cl)n1 [Compound I-326]
IC50 [2]: 1.2 µM
IC50 [3, 14]: 18 µM
Resistance factor RF = R-IC50/S-IC50 [3]: 15.0

CON=C(C(=O)OC)C(C)=CCOc1ncn(-c2cc(Cl)cc(Cl)c2)n1 [Compound I-331]
IC50 [2]: 1.8 µM
IC50 [3, 14]: 25 µM
Resistance factor RF = R-IC50/S-IC50 [3]: 13.9

CNC(=O)/C(=N/OC)c1ccccc1COc1cc(C)ccc1C [Dimoxystrobin, reference compound]
IC50 [2]: 7.1 µM
IC50 [3, 14]: > 100 µM

CO/C=C(/C(=O)OC)c1ccccc1CO/N=C(C)/C=C/c1ccc(Cl)cc1 [Enestroburin, reference compound]
IC50 [2]: 4.5 µM
IC50 [3, 14]: > 100 µM

CO/N=C(/C(=O)OC)c1ccccc1COc1ccccc1C [Kresoximmethyl]
IC50 ([2]; Zymoseptoria tritici): 0.76 µM
IC50 ([3]; Zymoseptoria tritici): > 100 µM

CNC(=O)/C(=N/OC)c1ccccc1Oc1ccccc1 [Metominostrobin, reference compound]
IC50 ([2]; Zymoseptoria tritici): > 100 µM
IC50 ([3]; Zymoseptoria tritici): > 100 µM

CNC(=O)/C(=N/OC)c1ccccc1CO/N=C(C)/C(=N/OC)C(/C)=N/OC [Orysastrobin, reference compound]
IC50 [2]: 27 µM
IC50 [3, 14]: > 100 µM

CO/C=C(/C(=O)OC)c1ccccc1COc1cccc(C(F)(F)F)n1 [Picoxystrobin, reference compound]
IC50 [2]: 2.3 µM
IC50 [3, 14]: > 100 µM

COC(=O)N(OC)c1ccccc1COc1c(C)c(-c2ccccc2)nn1C [Pyrametostrobin, reference compound]
IC50 [2]: > 100 µM
IC50 [3, 14]: > 100 µM

CO/C=C(/C(=O)OC)c1ccccc1COc1cc(-c2ccc(Cl)cc2)nn1C [Pyraoxystrobin, reference compound]
IC50 [2]: 1.6 µM
IC50 [3, 14]: > 100 µM

CON=C(C(=O)OC)c1ccccc1CON=C(C)c1cccc(C(F)(F)F)c1 [Trifloxystrobin, reference compound]
IC50 ([2]; Zymoseptoria tritici): 0.52 µM
IC50 ([3]; Zymoseptoria tritici): > 100 µM
Disease level (%) [1, 4]: 100%
Disease level (%) [1, 5]: 100%
Disease level (%) [1, 6]: 90%
Disease level (%) [1, 7]: 90%
Disease level (%) [1, 8]: 90%
Disease level (%) [1, 9]: 80%
Disease level (%) [1, 10]: 70%
Disease level (%) [1, 11]: 70%
Disease level (%) [1, 12]: 70%
Disease level (%) [1, 13]: 60%
